In assay [1] the target is T1, HDAC1 (Homo sapiens, UniProt Q13547).
T1 construct: purchased BPS Biosciences
Kind of assay: Individualized HDAC assay, HDAC1. To be noted: purified enzyme, 5 to 0.02 μM. The class given is biochemical. The procedure: The activity of the curcuphenol analogues was assessed with purified HDAC enzymes from all classes I, II, and IV, as well as a select member of HDAC class III (SIRT1). HDACs 1-9 and SIRT1 were evaluated using HDAC Fluorogenic Assay Kits (BPS Biosciences). All assays were completed in black-sided clear-bottom 96 well plates (PerkinElmer), and all treatments were plated in triplicates. Treatment started at 5 μM and was two-fold diluted to a concentration 0.02 μM. The assays were measured using the Synergy HI hybrid reader (BioTek) and Gen5 software (BioTek), excitation was set to 360 nm and detection was measured at 450 nm with a gain of 100. […] Luminescence was read 30 minutes after HDAC-Glo™I/II reagent was added using the Synergy HI hybrid reader (BioTek) and Gen5 software (Bio-Tek). […] The relative mean of activity of the HDAC being measured was determined and all wells that received treatment were divided this average, to give a percentage of activity.
To evaluate the effect of the compounds on specific HDACs, their activity was assessed with purified HDAC enzymes from all classes I, II, and IV, as well as a select member of HDAC class III (SIRT1). HDACs 1-9 and SIRT1 were evaluated using HDAC Fluorogenic Assay Kits (BPS Biosciences) following the manufacturer's recommendations. […] The assays were measured using the Synergy HI hybrid reader (BioTek) and Gen5 software (Bio-Tek). […]

Assay [2] concerns the target T2, HDAC7 (Homo sapiens, UniProt Q8WUI4).
T2 construct: purchased BPS Biosciences
T2 sequence (Q8WUI4 1-952): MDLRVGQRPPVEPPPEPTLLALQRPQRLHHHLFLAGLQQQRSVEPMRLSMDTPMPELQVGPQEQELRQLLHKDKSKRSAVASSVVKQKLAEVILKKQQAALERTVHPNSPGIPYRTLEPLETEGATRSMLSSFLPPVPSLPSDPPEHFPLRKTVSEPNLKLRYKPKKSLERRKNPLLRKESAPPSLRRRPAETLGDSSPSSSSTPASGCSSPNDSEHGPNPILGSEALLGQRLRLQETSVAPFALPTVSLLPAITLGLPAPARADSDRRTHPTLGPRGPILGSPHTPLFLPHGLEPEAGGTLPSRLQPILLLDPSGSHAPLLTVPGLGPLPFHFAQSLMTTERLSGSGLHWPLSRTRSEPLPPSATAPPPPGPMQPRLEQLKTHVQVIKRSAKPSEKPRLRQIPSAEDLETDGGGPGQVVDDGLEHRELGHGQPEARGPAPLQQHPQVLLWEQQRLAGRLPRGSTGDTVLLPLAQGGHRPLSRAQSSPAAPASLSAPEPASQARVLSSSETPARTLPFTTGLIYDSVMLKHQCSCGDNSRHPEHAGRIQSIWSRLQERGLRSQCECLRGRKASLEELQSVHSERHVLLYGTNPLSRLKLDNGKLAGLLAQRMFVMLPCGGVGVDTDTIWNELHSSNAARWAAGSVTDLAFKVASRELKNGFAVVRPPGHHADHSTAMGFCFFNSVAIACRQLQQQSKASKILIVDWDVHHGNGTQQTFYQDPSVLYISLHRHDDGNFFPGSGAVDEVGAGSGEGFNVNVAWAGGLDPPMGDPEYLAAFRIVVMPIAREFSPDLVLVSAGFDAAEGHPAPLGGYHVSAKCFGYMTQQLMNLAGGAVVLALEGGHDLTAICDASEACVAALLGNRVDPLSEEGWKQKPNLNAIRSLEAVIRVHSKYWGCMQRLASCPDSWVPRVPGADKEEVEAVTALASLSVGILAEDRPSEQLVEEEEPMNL
Kind of assay: Individualized HDAC assay, HDAC7. The class given is biochemical. To be noted: purified enzyme, 5 to 0.02 μM. The procedure: The activity of the curcuphenol analogues was assessed with purified HDAC enzymes from all classes I, II, and IV, as well as a select member of HDAC class III (SIRT1). HDACs 1-9 and SIRT1 were evaluated using HDAC Fluorogenic Assay Kits (BPS Biosciences). All assays were completed in black-sided clear-bottom 96 well plates (PerkinElmer), and all treatments were plated in triplicates. Treatment started at 5 μM and was two-fold diluted to a concentration 0.02 μM. The assays were measured using the Synergy HI hybrid reader (BioTek) and Gen5 software (BioTek), excitation was set to 360 nm and detection was measured at 450 nm with a gain of 100. Alternatively HDAC 10 and 11 (BPS Biosciences) were optimized for HDAC concentration using the HDAC-Glo™ I/II Assay and Screening System (Promega). Following optimization each HDAC was run following the Promega protocol in black-sided clear-bottomed 96 well plates in triplicates with same treatments listed above (PerkinElmer). Luminescence was read 30 minutes after HDAC-Glo™I/II reagent was added using the Synergy HI hybrid reader (BioTek) and Gen5 software (Bio-Tek). […] To calculate percent activity, the average of blank wells was subtracted from all treatment groups. The relative mean of activity of the HDAC being measured was determined and all wells that received treatment were divided this average, to give a percentage of activity.
To evaluate the effect of the compounds on specific HDACs, their activity was assessed with purified HDAC enzymes from all classes I, II, and IV, as well as a select member of HDAC class III (SIRT1). HDACs 1-9 and SIRT1 were evaluated using HDAC Fluorogenic Assay Kits (BPS Biosciences) following the manufacturer's recommendations. Compound treatment started at 5 μM and was two-fold diluted to a concentration 0.02 μM. […] The assays were measured using the Synergy HI hybrid reader (BioTek) and Gen5 software (Bio-Tek). […] To calculate the fold change in HDAC activity, the values from each treated well were divided by the relative mean of activity of the specific HDAC being measured.

Entries after “also recorded” stand apart in the source; their conditions may differ.

T1 sequence (Q13547 whole entry): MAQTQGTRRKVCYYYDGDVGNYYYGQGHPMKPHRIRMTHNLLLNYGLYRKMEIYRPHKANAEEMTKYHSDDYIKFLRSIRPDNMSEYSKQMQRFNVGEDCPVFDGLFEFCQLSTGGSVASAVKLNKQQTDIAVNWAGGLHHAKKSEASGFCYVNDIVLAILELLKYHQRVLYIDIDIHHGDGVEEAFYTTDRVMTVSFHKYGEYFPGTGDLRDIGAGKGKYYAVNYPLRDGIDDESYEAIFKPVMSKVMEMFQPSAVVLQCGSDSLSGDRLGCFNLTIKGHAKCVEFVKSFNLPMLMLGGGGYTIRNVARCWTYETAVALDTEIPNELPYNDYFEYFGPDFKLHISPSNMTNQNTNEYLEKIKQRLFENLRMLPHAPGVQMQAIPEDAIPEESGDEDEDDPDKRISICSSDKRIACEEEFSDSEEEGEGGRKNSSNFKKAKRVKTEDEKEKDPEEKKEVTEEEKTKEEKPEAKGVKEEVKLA

With `CC(C)=CCCCc1ccc(C)cc1O` [P02-113], the HDAC1 activity result in assay [1] was “no significant change in HDAC activity”. For the same molecule, the HDAC7 activity entry in assay [2] is on record as “no change in activity; also recorded: did not affect the activity; also recorded: unaffected”.
In the case of `COc1ccc(C(C)CCC=C(C)C)c(O)c1` (centres unmarked) [P03-97-1], the HDAC1 activity entry in assay [1] is “no significant change in HDAC activity”. Further, the HDAC7 activity result in assay [2] is on record as “no change in activity; also recorded: unaffected”; in assay [2] (listed as PO-3-97-1), “did not affect the activity”.

For the origin of these results see patent US20220105051A1, “COMPOUNDS FOR INCREASING MHC-I EXPRESSION AND MODULATING HISTONE DEACETYLASE ACTIVITY” (Cava Healthcare Inc., priority 2019, published 2022).
